From PubChem BioAssay AID200 (DTP/NCI, 2004)
Values joined by “and” are separate entries in the source; they are usually repeats but may differ in a detail not shown here. Identical values can stand only once. Inconclusive results and toxic doses are left out.

Test system: B6C3F1 mice, B16 melanoma ip, median survival T/C
Assay: NCI In Vivo Anticancer Drug Screen. Data for tumor model B16 Melanoma (intraperitoneal) in B6C3F1 mice
Settings: endpoint: median survival time, schedule: Q01DX009 (ip), higher = longer survival
How it was run: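 Transplantable tumor in mice; treated vs vehicle control groups; survival or tumor size measured; value = T/C ratio.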

[1] = dose: 12.5 mg/kg/injection, vehicle: saline
[2] = dose: 25.0 mg/kg/injection, vehicle: saline
[3] = dose: 50.0 mg/kg/injection, vehicle: saline
[4] = dose: 200.0 mg/kg/injection, vehicle: saline with Tween-80
[5] = dose: 100.0 mg/kg/injection, vehicle: saline
[6] = dose: 200.0 mg/kg/injection, vehicle: saline
[7] = dose: 400.0 mg/kg/injection, vehicle: saline
[8] = dose: 12.5 mg/kg/injection, vehicle: Klucel (hydroxypropylcellulose) (HPC)
[9] = dose: 25.0 mg/kg/injection, vehicle: Klucel (hydroxypropylcellulose) (HPC)
[10] = dose: 50.0 mg/kg/injection, vehicle: Klucel (hydroxypropylcellulose) (HPC)
[11] = dose: 25.0 mg/kg/injection, vehicle: saline with Tween-80
[12] = dose: 50.0 mg/kg/injection, vehicle: saline with Tween-80
[13] = dose: 100.0 mg/kg/injection, vehicle: saline with Tween-80
[14] = dose: 3.12 mg/kg/injection, vehicle: saline with Tween-80
[15] = dose: 6.25 mg/kg/injection, vehicle: saline with Tween-80
[16] = dose: 6.25 mg/kg/injection, vehicle: water
[17] = dose: 100.0 mg/kg/injection, vehicle: Klucel (hydroxypropylcellulose) (HPC)
[18] = dose: 200.0 mg/kg/injection, vehicle: Klucel (hydroxypropylcellulose) (HPC)

O=C1c2ccccc2C(=O)N1CC#CCN1C(=O)c2ccccc2C1=O
T/C (dose: 75.0 mg/kg/injection, vehicle: saline with Tween-80): 108 % of control | T/C (dose: 150.0 mg/kg/injection, vehicle: saline with Tween-80): 93 % of control | T/C (dose: 300.0 mg/kg/injection, vehicle: saline with Tween-80): 90 % of control

COc1ccccc1N=Nc1cc(S(=O)(=O)O)c2ccccc2c1O
T/C [1]: 95 % of control | T/C [2]: 92 % of control | T/C [3]: 98 % of control | T/C [4]: 87 % of control

NC(CCC(=O)Nc1ccc(O)cc1)C(=O)O (configuration not stated)
T/C [3]: 117 % of control | T/C [5]: 120 % of control | T/C [6]: 103 % of control | T/C [7]: 124 % of control

CN(C)CCCOc1nc2c(c(=O)n(C)c(=O)n2C)n1C (tested in a mixture with another compound)
T/C (dose: 6.25 mg/kg/injection, vehicle: Klucel (hydroxypropylcellulose) (HPC)): 90 % of control | T/C [8]: 111 % of control | T/C [9]: 102 % of control | T/C [10]: 107 % of control

CCCCCCCCCCCCOP(N)(=O)OCCCCCCCCCCCC
T/C [2]: 100 % of control | T/C [3]: 90 % of control | T/C [5]: 89 % of control

N#CCS(=O)(=O)c1cccc[n+]1[O-]
T/C [11]: 102 % of control | T/C [12]: 101 % of control | T/C [13]: 117 % of control | T/C [4]: 121 % of control

C=C1C(=O)C23[C@H](O)C1CC[C@H]2[C@]12COC3(O)[C@@H](O)[C@@H]1C(C)(C)CC[C@@H]2O
T/C (dose: 1.56 mg/kg/injection, vehicle: saline with Tween-80): 98 % of control | T/C [14]: 106 % of control | T/C (dose: 4.5 mg/kg/injection, vehicle: Klucel (hydroxypropylcellulose) (HPC)): 97 % of control | T/C [15]: 115 % of control | T/C (dose: 9.0 mg/kg/injection, vehicle: Klucel (hydroxypropylcellulose) (HPC)): 93 % of control | T/C (dose: 12.5 mg/kg/injection, vehicle: saline with Tween-80): 108 % of control | T/C (dose: 18.0 mg/kg/injection, vehicle: Klucel (hydroxypropylcellulose) (HPC)): 99 % of control | T/C [11]: 98 % of control

NC(CNC(=O)CBr)C(=O)O (configuration not stated)
T/C [16]: 112 % of control and 117 % of control and 104 % of control | T/C (dose: 12.5 mg/kg/injection, vehicle: water): 116 % of control and 118 % of control | T/C (dose: 50.0 mg/kg/injection, vehicle: water): 153 % of control

O=C1NC(=O)C2(CCC(C3CCCCC3)CC2)N1 (configuration not stated)
T/C [10]: 87 % of control | T/C [17]: 89 % of control | T/C [18]: 89 % of control

COc1ccc(CC(N)c2ccccc2)cc1 (configuration not stated)
T/C [3]: 99 % of control | T/C [5]: 96 % of control

CNC(=O)c1cccc2c(Nc3ccc(NS(C)(=O)=O)cc3OC)c3cccc(C)c3nc12
T/C (dose: 0.75 mg/kg/injection, vehicle: water): 116 % of control | T/C (dose: 0.78 mg/kg/injection, vehicle: water): 114 % of control | T/C (dose: 3.0 mg/kg/injection, vehicle: water): 168 % of control | T/C [16]: 106 % of control

NC(=O)SCC(N)C(=O)O (configuration not stated)
T/C [12]: 92 % of control | T/C [13]: 87 % of control | T/C [4]: 96 % of control

CN(C)CCCN1c2ccccc2Sc2ccc(Cl)cc21
T/C (dose: 4.68 mg/kg/injection, vehicle: saline): 92 % of control | T/C (dose: 9.37 mg/kg/injection, vehicle: saline): 104 % of control | T/C (dose: 18.75 mg/kg/injection, vehicle: saline): 105 % of control

CN=C(NC#N)NCCSCc1nc[nH]c1C
T/C [8]: 114 % of control | T/C [9]: 96 % of control | T/C [10]: 104 % of control | T/C [17]: 101 % of control | T/C [18]: 102 % of control | T/C (dose: 400.0 mg/kg/injection, vehicle: Klucel (hydroxypropylcellulose) (HPC)): 98 % of control

O=c1[nH]cnc2c1ccn2C1OC(CO)C(O)C1O (configuration not stated)
T/C (dose: 0.37 mg/kg/injection, vehicle: saline): 106 % of control | T/C (dose: 0.75 mg/kg/injection, vehicle: saline): 99 % of control | T/C (dose: 1.5 mg/kg/injection, vehicle: saline): 106 % of control | T/C (dose: 3.0 mg/kg/injection, vehicle: saline): 113 % of control | T/C (dose: 6.0 mg/kg/injection, vehicle: saline): 115 % of control | T/C (dose: 12.0 mg/kg/injection, vehicle: saline): 105 % of control

O=CC(CO)CC(C=O)n1cnc2c(=O)[nH]cnc21 (configuration not stated)
T/C (dose: 37.5 mg/kg/injection, vehicle: saline): 106 % of control | T/C (dose: 75.0 mg/kg/injection, vehicle: saline): 108 % of control | T/C (dose: 150.0 mg/kg/injection, vehicle: saline): 100 % of control | T/C (dose: 300.0 mg/kg/injection, vehicle: saline): 111 % of control

C[n+]1c(-c2cccc3ccccc23)c2cc(N)ccc2c2ccccc21
T/C (dose: 1.56 mg/kg/injection, vehicle: saline): 117 % of control | T/C (dose: 3.12 mg/kg/injection, vehicle: saline): 122 % of control | T/C (dose: 6.25 mg/kg/injection, vehicle: saline): 119 % of control

CO[C@@]12[C@@H]3N[C@@H]3CN1C1=C(C(=O)C(N3CCCC3)=C(C)C1=O)[C@@H]2COC(N)=O
T/C [14]: 327 % of control | T/C [15]: 100 % of control

OCC12COCN1COC2
T/C [1]: 98 % of control | T/C [2]: 113 % of control | T/C [3]: 113 % of control and 101 % of control | T/C [5]: 110 % of control and 100 % of control | T/C [6]: 108 % of control and 110 % of control | T/C [7]: 121 % of control and 105 % of control

OCCO
T/C (dose: 0.25 % in 0.5 ml injection vol, vehicle: water): 97 % of control | T/C (dose: 0.5 % in 0.5 ml injection vol, vehicle: water): 96 % of control

CC(C)N1C(=O)N(Cl)C2C1N(Cl)C(=O)N2Cl (configuration not stated)
T/C (dose: 1.5 mg/kg/injection, vehicle: saline with Tween-80): 108 % of control | T/C (dose: 3.0 mg/kg/injection, vehicle: saline with Tween-80): 104 % of control | T/C (dose: 6.0 mg/kg/injection, vehicle: saline with Tween-80): 98 % of control | T/C (dose: 12.0 mg/kg/injection, vehicle: saline with Tween-80): 94 % of control | T/C (dose: 24.0 mg/kg/injection, vehicle: saline with Tween-80): 108 % of control

C=C1C(=O)OC2/C=C(\CO)CC/C=C(\CO)CC(OC(=O)C(C)C)C12 (configuration not stated)
T/C (dose: 3.75 mg/kg/injection, vehicle: Klucel (hydroxypropylcellulose) (HPC)): 103 % of control

CC1=CC(=O)C(O)C2(C)C1CC1OC(=O)C(OC(=O)CC(C)(C)O)C3C(C)C(O)C4(O)OCC13C42 (configuration not stated)
T/C (dose: 0.25 mg/kg/injection, vehicle: saline + alcohol): 108 % of control | T/C (dose: 0.5 mg/kg/injection, vehicle: saline + alcohol): 116 % of control | T/C (dose: 1.0 mg/kg/injection, vehicle: saline + alcohol): 110 % of control | T/C (dose: 2.0 mg/kg/injection, vehicle: saline + alcohol): 116 % of control | T/C (dose: 4.0 mg/kg/injection, vehicle: saline + alcohol): 120 % of control

CC(C)(C)C(=O)Oc1ccc(N=C(N)N)cc1
T/C [1]: 94 % of control | T/C [2]: 94 % of control | T/C [3]: 97 % of control | T/C [5]: 92 % of control
